These are literature values, as cited in publication PMC9992518, “Structural basis of peptide recognition and activation of endothelin receptors” (Nature Communications, 2023).

pKi: −log10 of the molar value.

Data set [1] has as its system ETAR.
Data set [2] concerns ETBR. More on the design: method as in earlier work. The following applies: ETBR activated by ET-3.
Data set [3] has as its target ETAR. An excerpt:
(§1) S6c bears an identical substitution from K9 to E9 compared with s6b (Fig. 1a). The charge of the ninth residue has been thought to determine the ETR selectivity of s6c over s6b[33], supporting the importa ...
This is another data set of the same source.

For data set [4], the target named is ETBR.
Source text: as §1

In the next data set the test system is LgBiT. To be noted: NanoBiT complementary peptide. An excerpt: NanoLuc Binary Technology (NanoBiT, Promega) is originally a structurally complementary reporter system to evaluate protein-protein interaction in cells. NanoBiT is composed of a large subunit (LgBiT, 18 kDa) and an 11 amino acid complementary peptide (SmBiT, peptide, […]) with low affinity for LgBiT, both of which are connected to two interacting target proteins of interest, respectively. When the two proteins interact, the two subunits assemble into an active enzyme and generate a bright luminescent signal in the presence of a substrate. To improve the homogeneity and stability o ...

With “ET-3: endothelin, 21-amino-acid peptide hormone”, the “fold weaker affinity for ETAR” value with ETAR [1] (ETAR, relative to ET-1 and ET-2) is 100 fold. The “effect on ET-1-mediated effects upon ETBR activation (in words)” value in the data set on ETBR [2] is recorded as “can inhibit the ET-1-mediated effects”. As for Sarafotoxin s6c, the “ETBR selectivity (in words)” value with ETAR [1] (from reduced affinity for ETAR compared with s6b) is given as “substantial ETBR selectivity”.

With “Succinyl-[Glu^9, Ala^11,15]-ET-1(8-21) [IRL1620]”, the pKi (commonly the Ki on a negative log10 scale, so that one unit is a factor of ten) on ETAR [3] was 5.72; at ETBR [4], 10.80. Turning to VSGWRLFKKIS [HiBiT], the “affinity for LgBiT (in words)” value with LgBiT is “high affinity”. For VTGYRLFEEIL [SmBiT], in the data set with LgBiT, the “affinity for LgBiT (in words)” value is “low affinity”.
